We go through three molecules from patent US6869929B2, “Use of transcription factors for treating inflammation and other diseases” (Beth Israel Deaconess Medical Center, priority 2000, dated 2005).

Experiment [1] relates to ESE-1 promoter. Nature of the experiment: ESE-1 promoter luciferase construct (pXP2/ESE-1) transfection. It is filed as cell-based, human. Conditions: RAW 264.7 cells; 16 h. The method, then:
(§1) Cotransfections of 3-8×10^5 cells were carried out with 600 ng reporter gene construct DNA and 200 ng expression vector DNA using LipofectAMINE PLUS (Gibco-BRL) for 16 hours as described (Oettgen, P., et al. et al., 1997, Mol Cell Biol 17:4419-33). Transfections were performed independently in duplicate and repeated 3 to 4 times with different plasmid preparations with similar results.
To investigate the molecular mechanism by which IL-1 β and LPS regulate ESE-1 expression, we examined the response of an ESE-1 promoter luciferase construct after transfection using two cytokine responsive non-epithelial cell types, U-138 MG human glial cells and RAW 264.7 cells, a murine macrophage cell line (Oettgen, P., et al. 1999, Genomics 55:358-62). Whereas the parental pXP2 vector was not stimulated by IL-1β, in U-138 MG cells, IL-1β increased ESE-1 promoter activity up to 5-fold (FIG. 12a). Similarly, LPS enhanced ESE-1 promoter activity ˜9-fold in RAW 264.7 cells (FIG. 12b).

Experiment [2] has as its system NOS2 promoter. Briefly: LPS (endotoxin) induction of NOS2 promoter luciferase reporter in RAW cells. It is filed as cell-based, murine. Conditions: response to endotoxin (LPS). The method, then:
(§2) A 1516 and 265 bp fragment corresponding to nucleotides (−1485 to +31) and (−234 to +31) of the murine NOS2 gene promoter were subcloned into the PGL2 luciferase reporter(Promega).
(§3) Co-transfections of 2×10^5 RAW cells or RASMCs were carried out with 0.6 μg reporter gene construct DNA and 0.6 μg expression vector DNA using 6 μl lipofectamine (Gibco-BRL) as described (Oettgen, P., et al. 1996. Characterization of NERF, a novel transcription factor related to the Ets factor ELF-1. Mol Cell Biol 16:5091-106). The cells were harvested 16 hours after transfection and assayed for luciferase activity. Transfections for every construct were performed independently in duplicates and repeated 3 times with two different plasmid preparations with similar results. Cotransfection of a second plasmid for determination of transfection efficiency was omitted because potential artifacts with this technique have been reported and because many commonly used viral promoters contain potential binding sites for ets factors (Farr, A., and A. Roman. 1992. A pitfall of using a second plasmid to determine transfection efficiency. Nucleic Acids Res 20:920).
In the presence of LPS, the ESE-1 DN1 protein blocked induction of the NOS2 promoter by LPS by approximately 70-75%. (See FIG. 21C).

For experiment [3], the system named is COX-2 promoter. Briefly: COX-2 promoter luciferase construct (pXP2/COX-2) in RAW 264.7 cells. It is filed as cell-based, human. The note with it: luciferase 16 h. The protocol:
Full-length and dominant-negative mutant ESE-1 cDNAs were inserted into the pCI (Promega) eukaryotic expression vector as described (Oettgen, P., et al. et al. 1997, Mol Cell Biol 17:4419-33). The human COX-2 promoter spanning −170 to +103, kindly provided by Dr. Leslie J. Crofford, University of Michigan, (14) was cloned into the pXP2 luciferase vector (pXP2/COX-2).
as §1
We were interested to know which genes that are associated with inflammatory responses are targeted by ESE-1. We focused on the COX-2 gene, an important target for IL-1β, TNF-α, and LPS in inflammation. Furthermore, the COX-2 promoter contains multiple putative Ets binding sites that are potential targets for ESE-1. A COX-2 promoter luciferase construct, pXP2/COX-2, was transfected into RAW 264.7 cells in the absence or presence of the ESE-1 expression vector, pCI/ESE-1. ESE-1 enhanced COX-2 promoter activity more than 10-fold (FIG. 13a). […]

In experiment [4] the test system is ESE-1. Briefly: ESE-1 mRNA RT-PCR in THP-1 monocytic cells. It is filed as cell-based, human. The note with it: THP-1 cells; within one hour. The protocol:
U-87 Mg and U-138 Mg (human glioma), THP-1 (human monocytic), RAW 264.7 (murine monocytic), LB-12 (human osteoblast-like large T antigen transformed bone marrow stromal cells), and human chondrocytes were grown and treated with cytokines as described (Apperley, J., et al. 1990. J Bone Mineral Res. 5:S93; Goldring, M. B., et al. 1994. J Clin Invest 94:2307-16; Goldring, S. R., et al. 1983. J Bone Joint Surg 65:575-84; Libermann, T. A., et al. 1987. Embo J. 6:1627-1632).
cDNAs were generated from 1 μg of total RNA using Ready-To-Go™ You-prime First-Strand Beads (Amersham Pharmacia Biotech Inc). RT-PCR amplifications of 0.1 μg cDNA were carried out using a MJResearch thermal cycler PTC-100 as follows: 5 min at 94° C., 20-37 cycles of 30 sec at 94° C., 30 sec at 56° C., and 30 sec at 72° C., followed by 5 min at 72° C. (Oettgen, P., et al. 2000, J Biol Chem 275:1216-25). The sequences of the human ESE-1 primers and the primers for human GAPDH were as described (Oettgen, P., et al. 1999, J Biol Chem 274:29439-52).
Macrophages represent an additional cell type present within RA synovial tissues and are a major target of bacterial endotoxin. We, therefore, examined the effects of lipopolysaccharide (LPS) on ESE-1 expression in monocytes using the human monocytic cell line, THP-1 (FIG. 11e).

Experiment [5] deals with COL2A1 promoter. Nature of the experiment: COL2A1 promoter/intron deletion constructs, transient transfection in C-28/I2 cells. The experiment is classed as cell-based, human. The method, then: (§4) The COL2A1 sequence spanning −577 to +3428 bp (Goldring M B, et al, J Cell Biochem 1994;54:85-99, 39) was cloned into the pGL2-basic (pGL2B) luciferase reporter gene vector (Promega,) and named pGL2-COL2/4.0. Deletion constructs containing −577/+125 bp, −131/+125 bp, −87/+125 bp were prepared by enzyme digestion of pGL2-COL2/4.0 using PstI, ApaI, and PuuII, followed by ligation. For the deletion constructs −45/+125 bp, −83/+7 bp, and −45/+7 bp, PCR products were generated as described (Osaki et al.) and cloned into the pGL2-Basic luciferase vector. These reporter constructs were used as templates to generate point mutations or internal deletions by PCR mutagenesis employing the oligonucleotides listed in FIG. 16 and the QuikChange™ Site-Directed Mutagenesis Kit (Stratagene, La Jolla, Calif.). DNA fragments containing point mutations were then cloned into the pGL2B vector and confirmed by DNA sequencing using a G2 primer on pGL2 DNA. Deletions were also made in the −577/+127 bp COL2A1 promoter construct using the ExSite™ PCR-Based Site-Directed Mutagenesis Kit (Stratagene).
Transient transfection experiments were carried out in C-28/I2 cells using LipofectAMINE PLUS™ Reagent (Life Technologies). Cells were seeded in 6-well tissue culture plates at 3.5×10^5 cells/well in DMEM/F12 containing 10% FCS 24 h prior to transfection. For each well, 1 μg of COL2A1-luciferase construct, 6 μl of PLUS reagent and 92 μl of serum-free DMEM/F12 were mixed and incubated for 15 min at room temperature. LipofectAMINE+ reagent (4 μl) in 100 μl of serum-free medium was then added to each reaction mixture and incubation was continued for an additional 30 min at room temperature. Finally, the transfection mixture was combined with 800 μl of serum-free medium and the lipid-nucleic acid complex was transferred to the washed cell monolayer in each well. After incubation for 4 h at 37° C., the transfection mix was diluted with an equal volume of DMEM/F12 containing 2% Nutridoma-SP, and incubation continued for 18 h in the absence or presence of IL-1β. […] Cell lysates were prepared by extraction with 200 μl of Reporter Lysis Buffer (Promega) and the protein content was determined using the Coomassie Plus Protein Assay Reagent (PIERCE). Luciferase activities were determined by chemiluminescence assay using the Autolumat LB953 luminometer (EG&G Berthold, Oak Ridge, Tenn.), normalized to the amount of protein. Each data point was calculated as the mean±standard deviation for three independently transfected cultures from one representative of at least three experiments. […]
To localize the responses to IL-1β and ESE-1 in the COL2A1 promoter, we made several 5′-deletions of the −577/+127 bp promoter construct, which we had previously determined to be responsive to IL-1β.

The test system of experiment [6] is ICAM-2 promoter. Nature of the experiment: Cotransfection of ESE-1 with luciferase reporter constructs of potential target genes. The experiment is classed as cell-based. Conditions: cotransfection of expression plasmid with luciferase reporter. The method, then: as §3
In an attempt to identify target genes for ESE-1, the ability of ESE-1 to transactivate the promoters of several genes that are induced in response to inflammatory stimuli were tested. […] Transactivation of the ICAM-2 promoter by ESE-1 led to a 3.5 fold induction. […] The NOS2 gene promoter has two important regulatory regions, one that is upstream (−1100 to −800) and one that is in the more proximal promoter (−234 to +31). […]
For orientation: Reporter assays use an easily measured gene product as a stand-in for the process of interest.

The subject of experiment [7] is COL2A1 promoter. Nature of the experiment: COL2A1 promoter luciferase cotransfection in T/C-28a2 cells. It is filed as cell-based, human. The note with it: T/C-28a2; pGL3 construct; highest concentrations tested. The protocol: as §4
Transient transfection experiments were carried out in C-28/I2 cells using LipofectAMINE PLUS™ Reagent (Life Technologies). Cells were seeded in 6-well tissue culture plates at 3.5×10^5 cells/well in DMEM/F12 containing 10% FCS 24 h prior to transfection. For each well, 1 μg of COL2A1-luciferase construct, 6 μl of PLUS reagent and 92 μl of serum-free DMEM/F12 were mixed and incubated for 15 min at room temperature. LipofectAMINE+ reagent (4 μl) in 100 μl of serum-free medium was then added to each reaction mixture and incubation was continued for an additional 30 min at room temperature. Finally, the transfection mixture was combined with 800 μl of serum-free medium and the lipid-nucleic acid complex was transferred to the washed cell monolayer in each well. After incubation for 4 h at 37° C., the transfection mix was diluted with an equal volume of DMEM/F12 containing 2% Nutridoma-SP, and incubation continued for 18 h in the absence or presence of IL-1β. For cotransfections, the cells were incubated for 24 h to permit expression of recombinant proteins prior to treatment with IL-1β for a further 18 h. Cell lysates were prepared by extraction with 200 μl of Reporter Lysis Buffer (Promega) and the protein content was determined using the Coomassie Plus Protein Assay Reagent (PIERCE). Luciferase activities were determined by chemiluminescence assay using the Autolumat LB953 luminometer (EG&G Berthold, Oak Ridge, Tenn.), normalized to the amount of protein. Each data point was calculated as the mean±standard deviation for three independently transfected cultures from one representative of at least three experiments. […]

The test system of experiment [8] is NOS2 promoter. Nature of the experiment: ESE-1 transactivation of NOS2 promoter luciferase reporter, cotransfection in RAW cells. It is filed as cell-based, murine. The note with it: cotransfection with NOS2 promoter. The method, then: as §2, §3
The ability of ESE-1 DN 1 to block transactivation of the NOS2 promoter was tested in RAW cells. Cotransfection of ESE-1 with the NOS2 promoter led to an approximate 12-fold increase in transactivation. […]

Experiment [9] has as its target T1, p65 subunit of NF-kB, full-length, in vitro translated (UniProt Q04206 1-551, limits assumed, 35S-methionine labeled (pull-down assay)).
T1 construct: mature; In the pull-down it was translated in rabbit reticulocyte lysate with 35S-methionine; in the cotransfections it was expressed from pCI; also called p65 Rel domain protein
Nature of the experiment: GST pull-down, 35S-labeled in vitro translated p65. The method, then: A series of GST-ESE-1 fusion proteins were generated by PCR with specific primers to contain in frame restriction enzyme sites and sequenced to confirm that there were no mutations introduced by the PCR. GST-ESE-1 fusion proteins were prepared as previously described. 35S-methionine labeled in vitro translated full-length p50 and p65 were incubated with equal amounts of GST-ESE-1 fusion proteins or GST on agarose beads in 200 ul of NETN(0.5% Nonidet P-40, 1 mM EDTA, 20 mM Tris-HCl, pH 8.0, 100 mM NaCl) for 3 h at 4 degrees C. with gentle shaking. Bound p50 or p65 proteins were then eluted after three washings with NETN buffer and analyzed on a 12% SDS-polyacrylamide gel.

T1 sequence (Q04206 whole entry, the tested form may be a part): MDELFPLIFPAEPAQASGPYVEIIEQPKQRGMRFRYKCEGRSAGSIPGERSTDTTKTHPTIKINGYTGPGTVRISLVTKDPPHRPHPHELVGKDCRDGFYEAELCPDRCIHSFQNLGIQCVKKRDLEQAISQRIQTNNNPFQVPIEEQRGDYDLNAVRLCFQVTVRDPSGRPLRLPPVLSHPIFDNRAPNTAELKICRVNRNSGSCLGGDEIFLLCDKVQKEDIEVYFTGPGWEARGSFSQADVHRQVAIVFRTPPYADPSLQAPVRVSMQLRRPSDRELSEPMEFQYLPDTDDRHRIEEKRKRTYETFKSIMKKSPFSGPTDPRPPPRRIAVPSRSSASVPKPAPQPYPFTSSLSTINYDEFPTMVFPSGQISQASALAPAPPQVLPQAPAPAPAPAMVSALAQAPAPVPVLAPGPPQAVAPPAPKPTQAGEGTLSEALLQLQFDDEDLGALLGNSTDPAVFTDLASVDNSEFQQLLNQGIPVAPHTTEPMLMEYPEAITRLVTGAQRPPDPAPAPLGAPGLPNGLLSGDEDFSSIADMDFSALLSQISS

On to lipopolysaccharide [LPS], for which the “increase in ESE-1 promoter activity” value in experiment [1] is reported as approximately 9 fold. In experiment [2], the “increase in NOS2 promoter activity” value is approximately 14 fold. Further, in [3], the “induction of COX-2 promoter activity” value is recorded as “more than 20 fold”. The ESE-1 expression entry in [4] is “induced ESE-1 expression”.
With “ESE-1: full-length Ets transcription factor ESE-1 overexpressed from the pCI expression vector”, the “response of -131/+127 and -83/+127 bp constructs” value in [5] is given as “did not respond”. Besides, the “inhibition of -577/+127, -530/+127, -403/+127 bp constructs” value in experiment [5] (200 ng, highest amount) is “levels of inhibition similar to IL-1β”. In addition, the “increased expression of pGL2P+2370/+2672 and pGL2B-28/+2122 constructs” value in experiment [5] (overexpression) was approximately 10 fold. Further, the “induction of the ICAM-2 promoter” value in experiment [6] is listed as 3.5 fold. In addition, the “inhibition of COL2A1/4.0 activity” value in experiment [7] was 20%. Also, in [3], the “induction of COX-2 promoter activity” value is on record as “more than 10 fold”. Besides, the “increase in transactivation of the NOS2 promoter” value in experiment [8] is on record as approximately 12 fold.

B1: GST-ESE-1 fusion protein, full length ESE-1 (other, UniProt P78545 1-371, looked up)
chain: MAATCEISNIFSNYFSAMYSSEDSTLASVPPAATFGADDLVLTLSNPQMSLEGTEKASWLGEQPQFWSKTQVLDWISYQVEKNKYDASAIDFSRCDMDGATLCNCALEELRLVFGPLGDQLHAQLRDLTSSSSDELSWIIELLEKDGMAFQEALDPGPFDQGSPFAQELLDDGQQASPYHPGSCGAGAPSPGSSDVSTAGTGASRSSHSSDSGGSDVDLDPTDGKLFPSDGFRDCKKGDPKHGKRKRGRPRKLSKEYWDCLEGKKSKHAPRGTHLWEFIRDILIHPELNEGLMKWENRHEGVFKFLRSEAVAQLWGQKKKNSNMTYEKLSRAMRYYYKREILERVDGRRLVYKFGKNSSGWKEEEVLQSRN
notes: mature; GST fusion on agarose beads in the pull-down; also called full length ESE-1 protein; not shown: glutathione S-transferase (GST) fusion partner
On to B1, for which the binding result in experiment [9] was “no binding”.
